The supplement of paper PMC10307832

Assays:
Assay in all cases: relative viability (nuclei count vs DMSO), 5 days (fraction); higher = more cells survive
CPI-613 = compound: O=C(O)CCCCC(CCSCc1ccccc1)SCc1ccccc1 [CPI-613]
Procedure, shortened: (§1)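 A plate was accepted only when its control CV was below 25% and the cells had doubled at least once. Viability is defined from nuclear counts as treated wells divided by vehicle wells, with the median taken across plates. That median covers lung cancer cell lines grown in 1536-well plates, dosed by pinning at five √10-spaced library-drug concentrations, and counted in MetaXpress from 4× Hoechst images after 5 days.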

Tivozanib = compound: COc1cc2nccc(Oc3ccc(NC(=O)Nc4cc(C)on4)c(Cl)c3)c2cc1OC [Tivozanib]
Procedure, shortened: as §1

Cytarabine = compound: Nc1ccn([C@@H]2O[C@H](CO)[C@@H](O)[C@@H]2O)c(=O)n1 [Cytarabine]
Procedure, shortened: as §1

Docetaxel = compound: CC(=O)O[C@@]12CO[C@@H]1C[C@H](O)[C@@]1(C)C(=O)[C@H](O)C3=C(C)[C@@H](OC(=O)[C@H](O)[C@@H](NC(=O)OC(C)(C)C)c4ccccc4)C[C@@](O)([C@@H](OC(=O)c4ccccc4)[C@H]21)C3(C)C [Docetaxel]
Procedure, shortened: as §1

JQ1 = compound: Cc1sc2c(c1C)C(c1ccc(Cl)cc1)=N[C@@H](CC(=O)OC(C)(C)C)c1nnc(C)n1-2 [JQ1]
Procedure, shortened: as §1

[1] = compound: Cc1cnc(-c2cnc(NCCNc3ccc(C#N)cn3)nc2-c2ccc(Cl)cc2Cl)[nH]1
Procedure, shortened: as §1

Pimozide = compound: O=c1[nH]c2ccccc2n1C1CCN(CCCC(c2ccc(F)cc2)c2ccc(F)cc2)CC1 [Pimozide]
Procedure, shortened: as §1

Cell Line	relative viability (CPI-613; 5 µM)	relative viability (CPI-613; 15.81 µM)	relative viability (CPI-613; 50 µM)	relative viability (CPI-613; 158.11 µM)	relative viability (CPI-613; 500 µM)	relative viability (Tivozanib; 0.005 µM)	relative viability (Tivozanib; 0.01581 µM)	relative viability (Tivozanib; 0.05 µM)	relative viability (Tivozanib; 0.1581 µM)	relative viability (Tivozanib; 0.5 µM)	relative viability (Cytarabine; 0.005 µM)	relative viability (Cytarabine; 0.01581 µM)	relative viability (Cytarabine; 0.05 µM)	relative viability (Cytarabine; 0.1581 µM)	relative viability (Cytarabine; 0.5 µM)	relative viability (Docetaxel; 0.0002 µM)	relative viability (Docetaxel; 0.000632 µM)	relative viability (Docetaxel; 0.002 µM)	relative viability (Docetaxel; 0.006325 µM)	relative viability (Docetaxel; 0.02 µM)	relative viability (JQ1; 0.04 µM)	relative viability (JQ1; 0.1265 µM)	relative viability (JQ1; 0.4 µM)	relative viability (JQ1; 1.265 µM)	relative viability (JQ1; 4 µM)	relative viability ([1]; 0.08 µM)	relative viability ([1]; 0.253 µM)	relative viability ([1]; 0.8 µM)	relative viability ([1]; 2.53 µM)	relative viability (Pimozide; 0.08 µM)	relative viability (Pimozide; 0.253 µM)	relative viability (Pimozide; 0.8 µM)	relative viability (Pimozide; 2.53 µM)	relative viability (Pimozide; 8 µM)
NCI-H520	1.05	0.952	1.04	0.77	0.139	0.906	0.922	0.884	0.684	0.859	0.94	1.04	1.13	0.741	0.657	0.853	0.973	0.489	0.277	0.169	0.954	1.07	0.905	0.533	0.458	1.04	1	1.03	1.07	0.993	0.978	0.903	0.96	0.972
NCI-H522	0.864	0.944	1.09	0.921	0.53	0.961	1.21	0.925	0.802	0.787	0.868	0.878	0.762	0.566	0.53	0.927	0.727	0.689	0.579	0.389	0.957	0.915	0.793	0.457	0.425	1.07	1.01	1.02	0.873	0.93	0.885	0.868	0.893	0.906
NCI-H596	0.956	0.902	1.04	0.781	0.0741	0.926	0.963	1.13	–	0.99	0.956	0.841	0.798	0.689	0.551	0.89	0.89	0.632	0.518	0.273	1.06	0.923	0.747	0.412	0.286	0.995	0.972	0.754	1.07	0.993	0.935	0.882	0.952	0.847
NCI-H647	0.913	0.778	0.871	0.499	0.239	0.843	0.98	0.981	0.844	0.826	0.63	0.323	0.265	0.111	0.0762	0.739	0.43	0.209	0.148	0.0799	0.894	0.569	0.527	0.292	0.121	1.06	0.862	0.931	0.934	0.91	0.981	0.848	0.857	0.806
NCI-H650	0.937	0.803	1.05	0.621	0.716	0.86	0.979	0.935	0.607	0.706	0.893	0.581	0.328	0.234	0.205	0.871	0.456	0.343	0.257	0.187	0.946	0.628	0.78	0.365	0.298	1.03	1.01	0.797	0.783	0.969	0.914	0.839	0.997	1.12
